Calls of active or inactive are those of the source. The rule behind the calls is not given here.
Experiments:
BT-549 [1] = assay: Cytotoxicity against human BT-549 cells at 0.1 to 1.6 uM measured after 48 hrs in presence of 2 mM autophagy inhibitor, 3-methyladenine by CCK8 assay; format: functional, cell-based; settings: dose 0.1-1.6 µM
BT-549 [2] = assay: Induction of apoptosis in human BT-549 cells assessed as viable cells incubated for 48 hrs in presence of 20 uM autophagy inhibitor, CQ by AnnexinV-FITC and propidium iodide staining based flow cytometry analysis(reference value: 94.6%); format: functional
[3] = target: T1, Apoptosis regulator Bcl-2 (Homo sapiens, UniProt P10415); assay: Upregulation of Bcl-2 phosphorylation at Ser70 residue in human MDA-MB-231 cells at 0.05 to 0.4 microM incubated for 48 hrs by western blot analysis; format: cell-based; settings: dose 0.05-0.4 µM
T1 sequence (P10415 whole entry): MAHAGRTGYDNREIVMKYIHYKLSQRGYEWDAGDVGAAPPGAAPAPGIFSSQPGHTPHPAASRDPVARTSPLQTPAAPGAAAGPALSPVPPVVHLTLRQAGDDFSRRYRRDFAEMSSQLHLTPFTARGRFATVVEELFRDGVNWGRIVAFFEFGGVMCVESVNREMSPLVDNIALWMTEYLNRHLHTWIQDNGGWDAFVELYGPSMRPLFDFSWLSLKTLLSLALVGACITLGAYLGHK

BT-549 [4] = assay: Induction of apoptosis in human BT-549 cells assessed as viable cells incubated for 48 hrs by AnnexinV-FITC and propidium iodide staining based flow cytometry analysis(reference value: 98.6%); format: functional
HepG2 [5] = assay: Induction of autophagy in human HepG2 cells assessed as increase in LC3-II expression at 0.4 uM measured after 12 to 48 hrs by western blot analysis; format: functional, cell-based; settings: time 12-48 hrs
[6] = target: T1, Apoptosis regulator Bcl-2; assay: Induction of Bcl-2 phosphorylation-mediated protein degradation in human HepG2 cells assessed as decrease in Bcl-2 expression at 0.4 to 6.4 uM measured after 48 hrs by western blot analysis; format: cell-based; settings: dose 0.4-6.4 µM
[7] = target: T1, Apoptosis regulator Bcl-2; assay: Induction of Bcl-2 phosphorylation-mediated protein degradation in human U251 cells assessed as decrease in Bcl-2 expression at 0.4 to 6.4 uM measured after 48 hrs by western blot analysis; format: cell-based; settings: U-251, dose 0.4-6.4 µM
MDA-MB-231 [8] = assay: Cytotoxicity against human MDA-MB-231 cells transfected with non-targeting siRNA at 0.1 to 1.6 uM measured after 48 hrs by CCK8 assay; format: functional, cell-based; settings: dose 0.1-1.6 µM
MDA-MB-231 [9] = assay: Cytotoxicity against human MDA-MB-231 cells transfected with Beclin1 siRNA at 0.1 to 1.6 uM measured after 48 hrs by CCK8 assay; format: functional, cell-based; settings: dose 0.1-1.6 µM
BT-549 [10] = assay: Induction of apoptosis in human BT-549 cells assessed as necrotic cells incubated for 48 hrs by AnnexinV-FITC and propidium iodide staining based flow cytometry analysis(reference value: 0.145%); format: functional
[11] = target: T1, Apoptosis regulator Bcl-2; assay: Induction of Bcl-2 phosphorylation-mediated protein degradation in human MDA-MB-231 cells assessed as decrease in Bcl-2 expression measured after 48 hrs by western blot analysis; format: cell-based; settings: dose 0.05-0.4 µM
[12] = target: T1, Apoptosis regulator Bcl-2; assay: Induction of Bcl-2 phosphorylation-mediated protein degradation in human HepG2 cells assessed as decrease in Bcl-2 expression at 0.4 uM measured after 12 to 48 hrs by western blot analysis; format: cell-based; settings: time 12-48 hrs
BT-549 [13] = assay: Induction of apoptosis in human BT-549 cells assessed as increase in cleaved caspase 3 level pretreated with 20 uM autophagy inhibitor, CQ for 1 hr followed by incubation with drug for 48 hrs by western blot analysis; format: functional, cell-based
BT-549 [14] = assay: Induction of autophagy in human BT-549 cells expressing mRFP-EGFP-LC3B assessed as accumulation of yellow fluorescence signals measured after 12 hrs by fluorescence microscopic analysis; format: functional, cell-based
BT-549 [15] = assay: Induction of apoptosis in human BT-549 cells assessed as early apoptotic cells incubated for 48 hrs by AnnexinV-FITC and propidium iodide staining based flow cytometry analysis(reference value: 0.609%); format: functional
[16] = target: T1, Apoptosis regulator Bcl-2; assay: Binding affinity to human recombinant Bcl-2 expressed in Escherichia coli by Surface plasmon resonance assay
MCF7 = assay: Induction of autophagy in human MCF7 cells assessed as increase in LC3-II level at 0.1 uM by Western blot analysis; format: functional, cell-based; settings: time 12-48 hrs, TDE = time-dependent effect
[17] = target: T1, Apoptosis regulator Bcl-2; assay: Upregulation of Bcl-2 phosphorylation at Ser70 residue in human BT549 cells at 0.05 to 0.4 microM incubated for 48 hrs by western blot analysis; format: cell-based; settings: BT-549, dose 0.05-0.4 µM
MDA-MB-231 [18] = assay: Induction of autophagy in human MDA-MB-231 cells assessed increase in LC3-II level at 0.1 to 0.2 uM preincubated with 20 uM autophagosome-lysosome fusion inhibitor, chloroquine for 1 hr followed by incubation with compound for 48 hrs by western blot analysis; format: functional, cell-based; settings: dose 0.1-0.2 µM
[19] = target: T1, Apoptosis regulator Bcl-2; assay: Induction of Bcl-2 phosphorylation-mediated protein degradation in human MCF7 cells assessed as decrease in Bcl-2 expression at 0.1 to 0.2 uM pretreated with proteasome inhibitor, MG132 for 2 hrs followed by incubation with compound for 48 hrs by western blot analysis; format: cell-based; settings: dose 0.1-0.2 µM
[20] = target: T1, Apoptosis regulator Bcl-2; assay: Induction of Bcl-2 phosphorylation-mediated protein degradation in human MDA-MB-231 cells assessed as decrease in Bcl-2 expression at 0.1 to 0.2 uM pretreated with proteasome inhibitor, MG132 for 2 hrs followed by incubation with compound for 48 hrs by western blot analysis; format: cell-based; settings: dose 0.1-0.2 µM
MDA-MB-231 [21] = assay: Induction of autophagy in human MDA-MB-231 cells transfected with Beclin1 siRNA assessed as LC3-II level at 0.1 uM by western blot analysis; format: functional, cell-based
[22] = target: T1, Apoptosis regulator Bcl-2; assay: Induction of Bcl-2 phosphorylation-mediated protein degradation in human MCF7 cells assessed as decrease in Bcl-2 expression at 0.1 uM by western blot analysis; format: cell-based; settings: time 12-48 hrs, TDE = time-dependent effect
[23] = target: T1, Apoptosis regulator Bcl-2; assay: Induction of Bcl-2 phosphorylation-mediated protein degradation in human BT549 cells assessed as decrease in Bcl-2 expression measured after 48 hrs by western blot analysis; format: cell-based; settings: BT-549, dose 0.05-0.4 µM
[24] = target: T1, Apoptosis regulator Bcl-2; assay: Induction of Bcl-2 phosphorylation-mediated protein degradation in human MDA-MB-231 cells assessed as decrease in Bcl-2 expression at 0.1 uM by western blot analysis; format: cell-based; settings: time 12-48 hrs, TDE = time-dependent effect
U-251 [25] = assay: Cytotoxicity against human U251 cells at 0.1 to 1.6 uM measured after 48 hrs in presence of 20 uM autophagy inhibitor, chloroquine by CCK8 assay; format: functional, cell-based; settings: dose 0.1-1.6 µM
U-251 [26] = assay: Induction of autophagy in human U251 cells assessed as increase in LC3-II expression at 0.4 uM measured after 12 to 48 hrs by western blot analysis; format: functional, cell-based; settings: time 12-48 hrs
MDA-MB-231 [27] = assay: Cytotoxicity against human MDA-MB-231 cells at 0.1 to 1.6 uM measured after 48 hrs in presence of 2 mM autophagy inhibitor, 3-methyladenine by CCK8 assay; format: functional, cell-based; settings: dose 0.1-1.6 µM
[28] = target: T1, Apoptosis regulator Bcl-2; assay: Induction of Bcl-2 phosphorylation-mediated protein degradation in human BT549 cells assessed as decrease in Bcl-2 expression at 0.1 uM by western blot analysis; format: cell-based; settings: BT-549, time 12-48 hrs, TDE = time-dependent effect
[29] = target: T1, Apoptosis regulator Bcl-2; assay: Upregulation of Bcl-2 phosphorylation at Ser70 residue in human BT549 cells at 0.1 microM incubated for 12 to 36 hrs by western blot analysis; format: cell-based; settings: BT-549, time 12-36 hrs
HepG2 [30] = assay: Induction of autophagy in human HepG2 cells assessed as increase in LC3-II expression at 0.4 to 6.4 uM measured after 48 hrs by western blot analysis; format: functional, cell-based; settings: dose 0.4-6.4 µM
BT-549 [31] = assay: Induction of apoptosis in human BT-549 cells assessed as late apoptotic cells incubated for 48 hrs by AnnexinV-FITC and propidium iodide staining based flow cytometry analysis(reference value: 0.599%); format: functional

C/C(=C\c1csc(C)n1)[C@@H]1C[C@@H]2O[C@]2(C)CCC[C@H](C)[C@H](O)[C@@H](C)C(=O)C(C)(C)[C@@H](O)CC(=O)N1 [IXABEPILONE]
Activity (BT-549 [1]): Active | Activity (BT-549 [2]): 74.3% | Activity [3]: Active | Activity (BT-549 [4]): 86.3% | Activity (HepG2 [5]): Active | Activity [6]: Active | Activity [7]: Active | Activity (MDA-MB-231 [8]): Active | Activity (MDA-MB-231 [9]): Active | Activity (BT-549 [10]): 1.47% | Activity [11]: Dose-dependent effect | Activity [12]: Active | Activity (BT-549 [13]): Active | Activity (BT-549 [14]): Active | Activity (BT-549 [15]): 2.17% | Kd [16]: 337 nM | Activity (MCF7): Tde | Activity [17]: Active | Activity (MDA-MB-231 [18]): Active | Activity [19]: inactive | Activity [20]: inactive | Activity (MDA-MB-231 [21]): inactive | Activity [22]: Tde | Activity [23]: Dose-dependent effect | Activity [24]: Tde | Activity (U-251 [25]): Active | Activity (U-251 [26]): Active | Activity (MDA-MB-231 [27]): Active | Activity [28]: Tde | Activity [29]: Active | Activity (HepG2 [30]): Active | Activity (BT-549 [31]): 10%

Source: ChEMBL document CHEMBL4765332, “A multi-scale systems pharmacology approach uncovers the anti-cancer molecular mechanism of Ixabepilone” (Eur J Med Chem, 2020)
